{"source": "patent US9688637B2", "about": "“3-amidobenzamides and uses thereof for increasing cellular levels of A3G and other A3 family members” (Northwestern University, priority 2014, dated 2017)", "key": {"[1]": {"tested_on": "DU145", "experiment": "Cancer cell death, cell numbers vs DMSO", "type": "cell-based", "details": "6 μM, 8 days; prostate cell line, mutant p53", "text": "(§1) To test the effect of the compounds described below on cancer cell death, cell lines derived from different types of cancer were studied in vitro. MCF10A, MCF7, T47D, MDA-MB-157 and MDA-MB-231 are breast cancer cell lines. NHPrE, BHPrE, RWPE1, DU145, and PC3 cells are prostate cell lines. HeLa is cervical cancer cell line. HEK293 is human embryonic kidney cell line lacking A3B expression. There are differences among these cancer cell lines in p53 expression (44-46). MCF10A, MCF7, NHPrE, BHPrE and HEK293 cells have wild-type and functional p53. RWPE1 and HeLa cells have wild-type p53 but the p53 protein in these cell line is not functional because of effects of human papilloma virus E6 protein. T47D, MDA-MB-231, and DU145 cell lines have mutant p53, while MDA-MB-157 and PC3 cells have no p53 expression. 25,000 cells per well were plated in 6 well plates. In the case of HEK293 cells. 500,000 cells per well in 6-well plates were used instead. After 24 hrs, culture medium was replaced with new medium containing either DMSO as control or one of the compounds described below (6 μM per well concentration). After 8 days incubation with compounds, cell numbers were counted from each well and plotted with number of cells from DMSO treated sample as 100%. We performed the experiments at least twice. HEK293, MCF7 and T47D cells they were maintained for 16 days with compounds instead of 8 days."}, "[2]": {"tested_on": "MDA-MB-157", "experiment": "Cancer cell death, cell numbers vs DMSO", "type": "cell-based", "details": "6 μM, 8 days; breast cancer cell line, no p53 expression", "text": "as §1"}, "[3]": {"tested_on": "HeLa", "experiment": "Cancer cell death, cell numbers vs DMSO", "type": "cell-based", "details": "6 μM, 8 days; cervical cancer cell line, p53 not functional", "text": "as §1"}, "[4]": {"tested_on": "MCF10A", "experiment": "Cancer cell death, cell numbers vs DMSO", "type": "cell-based", "details": "6 μM, 8 days; breast cell line, wild-type functional p53", "text": "as §1"}, "[5]": {"tested_on": "BHPrE", "experiment": "Cancer cell death, cell numbers vs DMSO", "type": "cell-based", "details": "6 μM, 8 days; prostate cell line, wild-type functional p53", "text": "as §1"}, "[6]": {"tested_on": "MDA-MB-231", "experiment": "Cancer cell death, cell numbers vs DMSO", "type": "cell-based", "details": "6 μM, 8 days; breast cancer cell line, mutant p53", "text": "as §1"}, "[7]": {"tested_on": "T47D", "experiment": "Cancer cell death, cell numbers vs DMSO", "type": "cell-based", "details": "6 μM, 16 days; breast cancer cell line, mutant p53", "text": "as §1"}, "[8]": {"tested_on": "RWPE1", "experiment": "Cancer cell death, cell numbers vs DMSO", "type": "cell-based", "details": "6 μM, 8 days; prostate cell line, p53 not functional", "text": "as §1"}, "[9]": {"tested_on": "NHPrE", "experiment": "Cancer cell death, cell numbers vs DMSO", "type": "cell-based", "details": "6 μM, 8 days; prostate cell line, wild-type functional p53", "text": "as §1"}, "[10]": {"tested_on": "PC3", "experiment": "Cancer cell death, cell numbers vs DMSO", "type": "cell-based", "details": "6 μM, 8 days; prostate cell line, no p53 expression", "text": "as §1"}, "[11]": {"tested_on": "MCF7", "experiment": "Cancer cell death, cell numbers vs DMSO", "type": "cell-based", "details": "6 μM, 16 days; breast cancer cell line, wild-type functional p53", "text": "as §1"}, "[12]": {"tested_on": "A3G-Luc/Vif", "experiment": "A3G-Luc/Vif luciferase screen in 293T cells stably co-expressing A3G-Luc and HIV-1 Vif", "type": "cell-based, human", "details": "for Vif-A3G-Luc Activity (% of RLUs compared to DMSO treated control): 10 μM, 48 hrs, DMSO = 100%", "experimental": "FIG. 6. 293T cell clone #6 stably co-expressing A3G-Luciferase fusion protein together with HIV-1 Vif was used. Small molecule compounds were tested for their effects on stability of A3G and inhibition of Vif activity against A3G by measuring luciferase activity, relative to treatment with control DMSO only. The relative % luciferase activity was higher after treatment with NU compounds than DMSO.\n[…]. After sorting, expression of both A3G-Luc and Vif was confirmed by immunoblotting using antibody against both A3G and Vif.\n(§2) To screen compounds that can boost A3G levels, 293T cells (25,000 cells per well in 96-well plate) stably expressing A3G-Luc protein or A3G-Luc/Vif proteins were plated. After 24 hrs post plating culture medium was replaced with 100 μl of new medium containing either DMSO as a control or various compounds (10 μM concentration). After 48 hrs of incubation with compounds culture medium was removed from each well and replaced with 100 μl of Britelite Plus luciferase assay substrate (PerkinElmer). Following 5 min. of incubation at room temperature, 75 μl of each cell lysate was transferred to a 96-well OptiPlate 96 (PerkinElmer) and luminescence was measured in a VICTOR X2 Multilabel Reader (PerkinElmer). Relative activity of compounds for their boosting capability A3G-Luc activity was calculated by plotting DMSO-treated A3G-Luc or A3G-Luc/Vif cells as 100%. Cellular cytotoxicity was measured by counting number of cells after 48 hrs of incubation with compounds compared to DMSO treated cells."}, "[13]": {"tested_on": "A3G-Luc", "experiment": "A3G-Luc luciferase screen in 293T cells stably expressing A3G-Luc", "type": "cell-based, human", "details": "for A3G-Luc Activity (% of Relative Light Units compared to DMSO treated control): 10 μM, 48 hrs, DMSO = 100%", "text": "This background led to construction of cell lines to use in a search for compounds that might boost levels of A3s in the HIV target cells of the majority of HIV-infected persons who are non-controllers. The goal is to test a strategy of using such a booster in acute/early infection to prevent the hypothesized decrease of A3G and related A3s in an effort to increase “control” in persons lacking HLA B57/27-associated control. […] 293T and TZM-bl cells were maintained in DMEM (containing 4.5 g/liter glucose, L-glutamine, and sodium pyruvate) medium plus 10% fetal bovine serum, 50 IU/ml penicillin, and 50 μg/ml streptomycin at 37° C. and 5% CO2 throughout the experiments. […]. After collecting viral supernatant, 293T cells were infected with viral particles harboring the A3G-Luc expressing vector and selected with puromycin (0.75 μg/ml) for three days. Ten single cell clones of stable cells were isolated and tested for expression of A3G-Luc protein by both immunoblotting using antibody against A3G and measuring luciferase activity. Expressions in cell lines used for subsequent experiments are depicted in FIG. 2, upper panel. The A3G-Luc fusion protein was sensitive to Vif-mediated degradation (FIG. 3). Similar cells lines stably expressing A3F were constructed with the same methods (not shown).\nas §2, with “After 24 hrs post plating culture medium was replaced with 100 μl of new medium containing either DMSO as a control or various compounds (10 μM concentration).” left out"}}, "data": [{"compound": "COc1ccc(C(=O)Nc2ccc(Cl)c(Cl)c2)cc1NC(=O)CC1CC1", "note": "[NU-466]", "values": [{"measurement": "cell killing (cell numbers vs DMSO)", "setting": "[1]", "value": "kill"}, {"measurement": "cell killing (cell numbers vs DMSO)", "setting": "[2]", "value": "kill"}, {"measurement": "cell killing (cell numbers vs DMSO)", "setting": "[3]", "value": "kill"}, {"measurement": "cell killing (cell numbers vs DMSO)", "setting": "[4]", "value": "not killed"}, {"measurement": "cell killing (cell numbers vs DMSO)", "setting": "[5]", "value": "not killed"}, {"measurement": "cell killing (cell numbers vs DMSO)", "setting": "[6]", "value": "kill"}, {"measurement": "cell killing (cell numbers vs DMSO)", "setting": "[7]", "value": "kill"}, {"measurement": "cell killing (cell numbers vs DMSO)", "setting": "[8]", "value": "kill"}, {"measurement": "cell killing (cell numbers vs DMSO)", "setting": "[9]", "value": "not killed"}, {"measurement": "cell killing (cell numbers vs DMSO)", "setting": "[10]", "value": "kill"}, {"measurement": "cell killing (cell numbers vs DMSO)", "setting": "[11]", "value": "not killed"}, {"measurement": "Vif-A3G-Luc Activity (% of RLUs compared to DMSO treated control)", "setting": "[12]", "value": 202, "unit": "%"}, {"measurement": "A3G-Luc Activity (% of Relative Light Units compared to DMSO treated control)", "setting": "[13]", "value": 318, "unit": "%"}]}, {"compound": "COc1ccc(C(=O)Nc2ccc(Cl)c(Cl)c2)cc1NC(=O)C1CCC1", "note": "[NU-302]", "values": [{"measurement": "cell killing (cell numbers vs DMSO)", "setting": "[1]", "value": "kill"}, {"measurement": "cell killing (cell numbers vs DMSO)", "setting": "[2]", "value": "kill"}, {"measurement": "cell killing (cell numbers vs DMSO)", "setting": "[3]", "value": "kill"}, {"measurement": "cell killing (cell numbers vs DMSO)", "setting": "[4]", "value": "not killed"}, {"measurement": "cell killing (cell numbers vs DMSO)", "setting": "[5]", "value": "not killed"}, {"measurement": "cell killing (cell numbers vs DMSO)", "setting": "[6]", "value": "kill"}, {"measurement": "cell killing (cell numbers vs DMSO)", "setting": "[7]", "value": "kill"}, {"measurement": "cell killing (cell numbers vs DMSO)", "setting": "[8]", "value": "kill"}, {"measurement": "cell killing (cell numbers vs DMSO)", "setting": "[9]", "value": "not killed"}, {"measurement": "cell killing (cell numbers vs DMSO)", "setting": "[10]", "value": "kill"}, {"measurement": "cell killing (cell numbers vs DMSO)", "setting": "[11]", "value": "not killed"}, {"measurement": "Vif-A3G-Luc Activity (% of RLUs compared to DMSO treated control)", "setting": "[12]", "value": 167, "unit": "%"}, {"measurement": "A3G-Luc Activity (% of Relative Light Units compared to DMSO treated control)", "setting": "[13]", "value": 196, "unit": "%"}]}, {"compound": "COc1ccc(C(=O)Nc2ccc(Cl)c(Cl)c2)cc1NC(=O)C(C)C", "note": "[NU-52]", "values": [{"measurement": "cell killing (cell numbers vs DMSO)", "setting": "[1]", "value": "kill"}, {"measurement": "cell killing (cell numbers vs DMSO)", "setting": "[2]", "value": "kill"}, {"measurement": "cell killing (cell numbers vs DMSO)", "setting": "[3]", "value": "kill"}, {"measurement": "cell killing (cell numbers vs DMSO)", "setting": "[4]", "value": "not killed"}, {"measurement": "cell killing (cell numbers vs DMSO)", "setting": "[5]", "value": "not killed"}, {"measurement": "cell killing (cell numbers vs DMSO)", "setting": "[6]", "value": "kill"}, {"measurement": "cell killing (cell numbers vs DMSO)", "setting": "[7]", "value": "kill"}, {"measurement": "cell killing (cell numbers vs DMSO)", "setting": "[8]", "value": "kill"}, {"measurement": "cell killing (cell numbers vs DMSO)", "setting": "[9]", "value": "not killed"}, {"measurement": "cell killing (cell numbers vs DMSO)", "setting": "[10]", "value": "kill"}, {"measurement": "cell killing (cell numbers vs DMSO)", "setting": "[11]", "value": "not killed"}, {"measurement": "Vif-A3G-Luc Activity (% of RLUs compared to DMSO treated control)", "setting": "[12]", "value": 135, "unit": "%"}, {"measurement": "increase of A3G", "setting": "[12]; 293T stably expressing A3G-Luc, with Vif (FIG. 6)", "value": "about 3 fold"}, {"measurement": "A3G-Luc Activity (% of Relative Light Units compared to DMSO treated control)", "setting": "[13]", "value": 178, "unit": "%"}, {"measurement": "increase of A3G", "setting": "[13]; 293T stably expressing A3G-Luc, without Vif (FIG. 6)", "value": "about 3 fold"}]}]}
